We go through 30 compounds from PubChem BioAssay (NCI).

≈ marks a conversion by molar mass, not a printed value.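 Assay format: 96-well plates, 48-hour exposure. GI50: concentration for 50% inhibition of growth. Definition used: TGI = concentration required for complete inhibition of growth.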

Test systems include XF 498 CNS; M19-MEL melanoma; SNB-78 CNS; DMS 273 small cell lung; MDA-MB-231 breast; MDA-N; DMS 114 small cell lung; LXFL 529 NSCLC.
Common to all, as to test: NCI anticancer screen, dose series, 48 h

As to `CCCCCCCCCCCCCCCC(=O)OCCOCCOCCOCc1ccccc1`, the TGI in the experiment on XF 498 CNS, in the experiment with M19-MEL melanoma, in the experiment on SNB-78 CNS and in the experiment on DMS 273 small cell lung was over 100 µM each time.
For `Cc1nc(Nc2cccnc2)sc1C(=O)/C=C/c1ccc(F)cc1`, in the experiment with MDA-MB-231 breast, the GI50 was 4.03 µM and the TGI is over 100 µM.
In the case of `CC(=O)ON1CCCC(P(=O)(OCCSC(=O)C(C)(C)C)OCCSC(=O)C(C)(C)C)C1=O` (configuration not stated), in the experiment with MDA-MB-231 breast, the GI50 was 1.34 µM and the TGI stood at 87.8 µM.
As to `CN1C(=O)c2ccccc2NC(=O)C12O[C@@H]2c1ccccc1` (some centres not stated), the TGI in the experiment with MDA-N and with MDA-MB-231 breast was over 100 µM in each case.
Consider `O=C(NC[C@H](O)CN1CCc2ccccc2C1)c1cc(NC2COC2)ncn1`, for which, in the experiment with MDA-MB-231 breast, the GI50 is 16.1 µM and the TGI came to 46.9 µM.
For the compound `O=[N+]([O-])c1ccc2occ3c2c1CCC3`, the TGI in the experiment with DMS 114 small cell lung, in the experiment with M19-MEL melanoma, in the experiment with LXFL 529 NSCLC, in the experiment with SNB-78 CNS and in the experiment with DMS 273 small cell lung was over 100 µM throughout.
On to `C=CCCCCC1CCC2CCC(CCCCC=C)N12` (configuration not stated), for which the TGI in the experiment on DMS 114 small cell lung stood at 31.3 µM; in the experiment with M19-MEL melanoma, 37.3 µM; in the experiment on LXFL 529 NSCLC, 26.9 µM; with DMS 273 small cell lung, 37.5 µM.
In the case of `COC(=O)c1c2c(c(C)[n+]([O-])c1C)C(=O)C=C(NCc1ccc(F)cc1)C2=O`, in the experiment with MDA-MB-231 breast, the GI50 was 0.354 µM and the TGI worked out at 4.46 µM.
For `CCOC(=O)c1nc2c(OC)nn(O)cc-2c1[N+](=O)[O-]`, the TGI worked out at 48.4 µM in the experiment with DMS 114 small cell lung; 29.6 µM in the experiment on XF 498 CNS; 89.2 µM with M19-MEL melanoma; 31 µM in the experiment with LXFL 529 NSCLC; 44.6 µM with SNB-78 CNS.
`COc1ccc(C(=O)Nc2ccc(O)c(=O)cc2)cc1` returned a TGI in the experiment on MDA-MB-231 breast of over 100 µM.
On to `Cc1nc(N)sc1N=Nc1ccccc1Br`, for which the TGI came to 64.7 µM with MDA-N and 67 µM with MDA-MB-231 breast.
`C#CC1/C(=C\C(=O)OC)CCCC1O` (configuration not stated): the TGI in the experiment on DMS 114 small cell lung, with XF 498 CNS, in the experiment with M19-MEL melanoma, in the experiment on LXFL 529 NSCLC, in the experiment with SNB-78 CNS and in the experiment on DMS 273 small cell lung was over 100 µM throughout.
For `O=c1oc2ccc(-c3ccc(F)cc3F)cc2c(=O)n1-c1cccc(C(F)(F)F)c1`, in the experiment with MDA-MB-231 breast, the GI50 is 2.08 µM and the TGI turned out to be 7.37 µM.
Take `CCOc1ccc(/C=C2\N=C(c3ccc([N+](=O)[O-])cc3)OC2=O)cc1`: the TGI with MDA-N and in the experiment on MDA-MB-231 breast was over 100 µM each time.
Take `COc1cc(N(CCC#N)CCC#N)ccc1/C(N=Nc1ccc(Cl)cc1)=N/NC(=O)c1cc(Br)ccc1O`: in the experiment with MDA-N, the GI50 is 90.3 µg/mL (≈ 148 µM) and the TGI was over 150 µg/mL. For the same compound, in the experiment on MDA-MB-231 breast, the GI50 was 38.8 µg/mL and the TGI was over 150 µg/mL.
`C[C@@H]1C[C@@H]([C@@H](CC2CC(=O)NC(=O)C2)OC(=O)CC(=O)c2ccccc2)C(=O)[C@@H](C)C1`: in the experiment with MDA-MB-231 breast, the GI50 is 2.94 µM and the TGI turned out to be 90.5 µM.
`S=c1[nH]c(=S)c2cc3ccccc3nc2[nH]1`: in the experiment on MDA-MB-231 breast, the GI50 is 51 µM and the TGI is over 100 µM.
As to `N#C/C(=C\c1ccc2ccccc2c1)C(=O)c1ccccc1`, the TGI in the experiment on MDA-N, with DMS 114 small cell lung, with XF 498 CNS, with M19-MEL melanoma, in the experiment with LXFL 529 NSCLC and in the experiment on SNB-78 CNS was over 100 µM in each case. Besides, the TGI in the experiment with DMS 273 small cell lung was over 100 µM.
With `CCn1c(O)c(/C=N/NC(=O)C(C)c2ccc(CC(C)C)cc2)sc1=S` (configuration not stated), in the experiment with MDA-MB-231 breast, the GI50 is 0.515 µM and the TGI amounted to 7.59 µM.
Take `CC1CC2CCCC(O)=C2C(=O)O1` (configuration not stated): the TGI in the experiment with MDA-N and in the experiment on MDA-MB-231 breast was over 100 µM each time.
In the case of `CN1CCN(c2ccc(Nc3cc(-c4cccc(-n5ccc6cc(C7CC7)cc(F)c6c5=O)c4CO)cn(C)c3=O)nc2)CC1`, in the experiment with MDA-MB-231 breast, the GI50 was 2.26 µM and the TGI stood at 6.17 µM.
Consider `CCC(C)(C)c1ccc(OCCCCNC(=O)c2ccc3ccccc3c2O)c(C(C)(C)CC)c1`, for which the TGI in the experiment with MDA-N and with MDA-MB-231 breast was over 100 µM each time.
On to `COc1cc(OC)c2c(=O)cc(-c3ccc(OC)c(OC)c3OC)oc2c1`, for which the TGI in the experiment with DMS 114 small cell lung, with XF 498 CNS, in the experiment on M19-MEL melanoma and in the experiment on LXFL 529 NSCLC was over 100 µM in each case.
Turning to `C/C(CC(=O)Nc1ccc(C)c(C)c1)=N\N(c1ccccc1)c1ccccc1`, the TGI in the experiment with DMS 114 small cell lung is 33.2 µM; in the experiment on XF 498 CNS, over 100 µM; in the experiment on LXFL 529 NSCLC, over 100 µM; in the experiment on SNB-78 CNS, over 100 µM; with DMS 273 small cell lung, 33.5 µM.
As to `CC(NCCC(c1ccccc1)c1ccccc1)c1ccccc1` (configuration not stated), in the experiment with MDA-MB-231 breast, the GI50 was 2.17 µM and the TGI came out at 5.74 µM.
On to `c1ccc2c(OCCSCCCCCCCCCCSCCOc3cccc4ccccc34)cccc2c1`, for which the TGI in the experiment with DMS 114 small cell lung, in the experiment on M19-MEL melanoma, in the experiment with SNB-78 CNS and in the experiment with DMS 273 small cell lung was over 100 µM each time.
Regarding `NC1CCN(Cc2ccccc2)CC1`, in the experiment on MDA-MB-231 breast, the GI50 was over 100 µM and the TGI is over 100 µM.
`N=c1c2c(-c3ccccc3)c(-c3ccccc3)n(Cc3ccccc3)c2ncn1C1CCC(O)CC1` (configuration not stated): in the experiment with MDA-MB-231 breast, the GI50 is 1.29 µM and the TGI stood at 4.65 µM.
The corresponding values for `O=C(/C=C/c1ccc[nH]1)c1ccc(-n2ccc(C(F)(F)F)n2)cc1` are over 100 µM and over 100 µM.
On the same counts, the results for `CC1(C)OC2C(CO[Si](C)(C)C(C)(C)C)OC(n3c(I)c(C#C[Si](C)(C)C)c(=O)[nH]c3=O)C2O1` (configuration not stated) are 4.22 µM and 17 µM.
